Experimental findings from EP2332917B1, “Compounds for PIM kinase inhibition and for treating malignancy” (Sygnis Bioscience GmbH & Co. KG, priority 2009, dated 2011) are described below.

This assay concerns the target T1, PIM-1 kinase (Homo sapiens, UniProt P11309).
T1 construct: purchased Cell Signaling Technology Inc., Boston, USA
As to the kind of experiment: In vitro assay for PIM-1 kinase inhibition (PIM-1 Kinase Assay Kit, colorimetric ELISA readout). Type of assay: biochemical. Particulars: for PIM-1 kinase inhibition (result in words): increasing concentrations 0.1 to 100 µM, Fig. 1 (1.5 ng PIM-1 kinase) and Fig. 2 (2.5 ng PIM-1 kinase); for % remaining PIM-1 kinase activity: test compound at final concentration 100 µM, normalized to positive control (no test compound) = 100 % activity, 1.5 ng (A-D series) or 2.5 ng (E series) PIM-1 kinase, 200 µM ATP. How it is done:
• Fig. 1: The compounds 1-chloro-5-([1,4]diazepane-1-sulfonyl)-8-propoxy-isoquinoline (compound A), 1-chloro-5-(piperazin-1-sulfonyl)-8-methoxy-isoquinoline (compound B), […] (compound C), and 1-chloro-5-([1,4]diazepane-1-sulfonyl)-6-methoxy-isoquinoline (compound D) are potent PIM kinase inhibitors. In vitro assays of PIM-1 kinase activity (1.5 ng) in the present of increasing concentrations of the compounds A, B, C or D were performed as described within example 5. An assay without additional test compound served as positive control for the assay (pos) and an assay without PIM-1 kinase served as negative assay (neg). […] Each assay result was normalized in comparison to the positive control which was defined as 100 % activity. […] In vitro assays of PIM-1 kinase activity (2.5 ng) in the present of increasing concentrations of the compound E were performed as described within example 5. An assay without additional test compound served as positive control for the assay (pos) and an assay without PIM-1 kinase served as negative assay (neg). […] Each assay result was normalized in comparison to the positive control which was defined as 100 % activity.
The in vitro assay for PIM-1 kinase inhibition was performed using the PIM-1 Kinase Assay Kit (Cell Signaling Technology Inc., Boston, USA) according to the manufacture's instruction. Briefly, 1.5 or 2.5 ng PIM-1 kinase has been dissolved in 50 µl assay buffer (25 mM Tris-Hcl (pH 7.5), 10 mM MgCl2, 5 mM beta-glycerophosphate, 0.1 mM Na3VO4, 2 mM DTT, 200 µM ATP, and 1.5 µM peptide substrate) and test compound has been added to a final concentration in a range of 0.1 to 100 µM. After 30 minutes incubation at ambient temperature the reaction was stopped by adding 50 µl Stop buffer (50 mM EDTA, pH 8) per reaction. An aliquot of 25 µl per reaction was diluted each by 75 µl water and transferred to a 96-well streptavidin-coated plate. After 60 minutes incubation and three times washing with PBS, 100 µl/well primary antibody (Phospho-Bad (Ser112) antibody, 1:1000 diluted in PBS) was added. After further 2 h incubation and three times washing with PBS, an usual colorimetric ELISA assay was performed using a HRP labeled second antibody according to the manufacture's instructions. A PIM kinase reaction without addition of a test compound served as positive control (pos) and an assay without PIM kinase served as negative control (neg). […] The PIM-1 kinase inhibition of the test compounds (1-chloro-5-([1,4]diazepane-1-sulfonyl)-8-propoxy-isoquinoline (compound A), 1-chloro-5-(piperazin-1-sulfonyl)-8-methoxy-isoquinoline (compound B), 1-methyl-5-([1,4]diazepane-1-sulfonyl)-8-methoxy-isoquinoline (compound C), and 1-chloro-5-([1,4]diazepane-1-sulfonyl)-6-methoxy-isoquinoline (compound D)) was measured in a first series of assays, and the one of the compound 5-([1,4]diazepane-1-sulfonyl)-8-methoxy-isoquinoline (compound E) was measured in a second series of assays. Within each series of assays the measured PIM-1 kinase activity was normalized in comparison to the positive control (pos) which was defined as 100 % activity. […] The table below summarizes the percentage of the remaining PIM-1 kinase activity in the presence of the test compounds in a final concentration of 100 µM.
Background: An ELISA detects its analyte on a solid surface through an enzyme-linked reagent.

Entries after “also recorded” stand apart in the source; their conditions may differ.

T1 sequence (P11309 whole entry): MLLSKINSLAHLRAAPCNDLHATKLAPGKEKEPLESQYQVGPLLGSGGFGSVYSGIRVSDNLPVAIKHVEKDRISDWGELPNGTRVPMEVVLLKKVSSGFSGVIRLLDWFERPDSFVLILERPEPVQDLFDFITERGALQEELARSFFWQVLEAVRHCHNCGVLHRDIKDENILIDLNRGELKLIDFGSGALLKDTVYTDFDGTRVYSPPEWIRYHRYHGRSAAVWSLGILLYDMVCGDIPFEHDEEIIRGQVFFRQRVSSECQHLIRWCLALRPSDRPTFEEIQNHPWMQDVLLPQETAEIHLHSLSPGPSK

On to `COc1ccc2c(Cl)nccc2c1S(=O)(=O)N1CCCNCC1` [D, 1-chloro-5-([1,4]diazepane-1-sulfonyl)-6-methoxy-isoquinoline], for which the “PIM-1 kinase inhibition (result in words)” value (“PIM-1 kinase inhibition” for short) is on record as “potent PIM-1 kinase inhibitors; also recorded: potent PIM inhibitory effect” and the “% remaining PIM-1 kinase activity” value stood at 29%.

For `COc1ccc(S(=O)(=O)N2CCCNCC2)c2ccncc12` [E, 5-([1,4]diazepane-1-sulfonyl)-8-methoxy-isoquinoline, reference compound], the “PIM-1 kinase inhibition” value is on record as “at most a moderate PIM-1 kinase inhibition; also recorded: only weak PIM inhibitory effect” and the “% remaining PIM-1 kinase activity” value came out at 46%.

Consider `CCCOc1ccc(S(=O)(=O)N2CCCNCC2)c2ccnc(Cl)c12` [Compound A, 1-chloro-5-([1,4]diazepane-1-sulfonyl)-8-propoxy-isoquinoline], for which the “PIM-1 kinase inhibition” value is reported as “potent PIM-1 kinase inhibitors; also recorded: potent PIM inhibitory effect” and the “% remaining PIM-1 kinase activity” value is 23%.

For `COc1ccc(S(=O)(=O)N2CCCNCC2)c2ccnc(C)c12` [C, 1-methyl-5-([1,4]diazepane-1-sulfonyl)-8-methoxy-isoquinoline], the “PIM-1 kinase inhibition” value is reported as “potent PIM-1 kinase inhibitors; also recorded: potent PIM inhibitory effect” and the “% remaining PIM-1 kinase activity” value was 31%.

As to `COc1ccc(S(=O)(=O)N2CCCNCC2)c2ccnc(Cl)c12` [G, 1-chloro-8-methoxy-Fasudil, reference compound], the “PIM-1 kinase inhibition” value is listed as “very potent PIM-1 inhibitor” and the “% remaining PIM-1 kinase activity” value came out at 17%.

As for `COc1ccc(S(=O)(=O)N2CCNCC2)c2ccnc(Cl)c12` [B, 1-chloro-5-(piperazin-1-sulfonyl)-8-methoxy-isoquinoline], the “PIM-1 kinase inhibition” value was “potent PIM-1 kinase inhibitors; also recorded: potent PIM inhibitory effect” and the “% remaining PIM-1 kinase activity” value is 33%.

On to `O=S(=O)(c1cccc2cnccc12)N1CCCNCC1` [F, Fasudil, reference compound], for which the “PIM-1 kinase inhibition” value is “at the most very weak PIM-1 inhibition” and the “% remaining PIM-1 kinase activity” value was found to be 71%.
